Experimental data: ChEMBL document CHEMBL3044657, “Identification of an antiepileptic lead compound with a more selective activity and its analogues for GABA-AT using in silico approach” (2013)
Active and inactive are the calls of the source. The rule behind the calls is not given here.

Organism: Mus musculus
Experiment: Antiepileptic activity in Mus musculus (mouse) assessed as minimum dose required to protect half or more number of animals against maximal electroshock-induced seizures after 0.5 hr
Assay type: functional
Conditions: read-out: MED

| SMILES | minimal effective dose [mg/kg] |
| --- | --- |
| c1cncc(NC2=NSC(Nc3cccnc3)N2)c1 (centres undefined) | 300 |
| O=C(N/N=C/c1ccccc1[N+](=O)[O-])Nc1ccc(Br)cc1 | 300 |
| CCNC(=S)Nc1ccc(S(=O)(=O)Nc2nc3ccc(F)cc3s2)cc1 | 300 |
| Cc1ccc(NC(=S)Nc2ccc(S(=O)(=O)Nc3ccc(Br)cc3)cc2)cc1 | 100 |
| O=c1snc(Nc2ccncc2)n1-c1ccncc1 | 300 |
| O=c1snc(Nc2cccc3ccccc23)n1-c1cccc2ccccc12 | 100 |
| C/C(=N\NC(=O)Nc1ccc(Br)cc1)c1ccc([N+](=O)[O-])cc1 | 300 |
| Cc1ccc(NC(=S)Nc2ccc(S(=O)(=O)Nc3ccc(Cl)cc3)cc2)cc1 | 100 |
| CCOc1ccc(NC(=O)N/N=C/c2ccccc2Cl)cc1 | 100 |
| CCOc1ccc(NC(=O)N/N=C/c2ccccc2O)cc1 | 300 |
| CCOc1ccc(NC2=NSC(Nc3ccc(OCC)cc3)N2)cc1 (centres undefined) | 100 |
| CCOc1ccc(NC(=O)N/N=C(\C)c2ccc(Cl)cc2)cc1 | 300 |
| O=c1snc(Nc2ccc(F)cc2)n1-c1ccc(F)cc1 | 100 |
| O=C(NN=C(c1ccccc1)c1ccccc1)Nc1ccc(Br)cc1 | 300 |
| O=c1snc(Nc2ccccn2)n1-c1ccccn1 | 300 |
| c1ccc(NC2=NSC(Nc3ccccn3)N2)nc1 (centres undefined) | 300 |
| Fc1ccc(NC2=NSC(Nc3ccc(F)cc3)N2)cc1 (centres undefined) | 100 |
| CNC(=S)Nc1ccc(S(=O)(=O)Nc2nc3ccc(OC)cc3s2)cc1 | 300 |
| O=C(NN=C1c2ccccc2C(=O)c2ccccc21)Nc1ccc([N+](=O)[O-])cc1 | 300 |
| CCOc1ccc(NC(=O)N/N=C(\C)c2ccc(O)cc2)cc1 | 100 |
| CNC(=S)Nc1ccc(S(=O)(=O)Nc2ccc(Br)cc2)cc1 | 300 |

| SMILES | minimal effective dose [mg/kg] |
| --- | --- |
| CNC(=S)Nc1ccc(S(=O)(=O)Nc2ccc(Cl)cc2)cc1 | 300 |
| O=C1C=CC(=NNC(=O)Nc2ccc([N+](=O)[O-])cc2)C=C1 | 300 |
| COc1cc(/C=N/NC(=O)Nc2ccc(Br)cc2)ccc1O | 300 |
| c1ccc2c(NC3=NSC(Nc4cccc5ccccc45)N3)cccc2c1 (centres undefined) | 100 |
| CCOc1ccc(Nc2nsc(=O)n2-c2ccc(OCC)cc2)cc1 | 100 |
| O=c1snc(Nc2cccnc2)n1-c1cccnc1 | 300 |
| CCOc1ccc(NC(=O)N/N=C(\C)c2ccccc2O)cc1 | 100 |
| CNC(=S)Nc1ccc(S(=O)(=O)Nc2nc3ccc(F)cc3s2)cc1 | 300 |
| COc1ccc(/C=N/NC(=O)Nc2ccc(Br)cc2)cc1OC | 300 |
| C/C(=N\NC(=O)Nc1ccc(Br)cc1)c1ccc(O)cc1 | 300 |
| C/C(=N\NC(=O)Nc1ccc(Br)cc1)c1ccc(N)cc1 | 300 |
| CCOc1ccc(NC(=O)N/N=C(\C)CC(C)=O)cc1 | 100 |
| O=c1snc(Nc2ncccn2)n1-c1ncccn1 | 300 |
| O=C(N/N=C/c1ccccc1Cl)Nc1ccc(Br)cc1 | 300 |
| CN(C)c1ccc(/C=N/NC(=O)Nc2ccc(Br)cc2)cc1 | 300 |
| CC(C)=NNC(=O)Nc1ccc([N+](=O)[O-])cc1 | 300 |
| c1cc(NC2=NSC(Nc3ccncc3)N2)ccn1 (centres undefined) | 300 |
| Cc1ccc(NC(=S)Nc2ccc(S(=O)(=O)Nc3ccc(C)cc3)cc2)cc1 | 300 |
| C/C(=N\NC(=O)Nc1ccc(Br)cc1)c1ccccc1 | 100 |
| CCOc1ccc(NC(=O)N/N=C(\C)CC(C)C)cc1 | 100 |

What follows are compounds tested on Mus musculus (assay: Antiepileptic activity in Mus musculus (mouse) assessed as protection against maximal electroshock-induced seizures at 300 mg/kg after 0.5 hr). Conditions: not given.
Assay type: functional, organism-based
Set-up: dose 300 mg/kg

| SMILES | Activity |
| --- | --- |
| CCNC(=S)Nc1ccc(S(=O)(=O)Nc2nc3ccc(Cl)cc3s2)cc1 | inactive |
| C/C(=N\NC(=O)Nc1ccc(Br)cc1)c1ccc(C)cc1 | inactive |
| CNC(=S)Nc1ccc(S(=O)(=O)Nc2nc3ccc(Cl)cc3s2)cc1 | inactive |
